The structures appear in SMILES notation. “And” between values parts separate entries of the source, which are not always exact repeats. Equal values may be shown once. “Also recorded” adds a separate entry of the source. Bounds are passed on as bounds.

For one data set, the system named is isolated rat heart. Description: Isolated perfused heart model, myocardial ischemia-reperfusion. The data set is classed as in vivo, Sprague-Dawley rats. The conditions noted are these: 2 mg/kg 6 hr before. On the procedure: Male Sprague-Dawley rats weighing 200-250 g were injected intravenously with either AS-ODNs (n=7) or IN-ODNs (n=7) at a dose of 200 μg/rat 4 days before excising the hearts. DOTAP/DOPE liposomes (700 μg/rat) were given along with ODNs.
The hearts were excised rapidly and placed in ice-cold Kreb-Henseleit buffer (mmol/L: NaCl 118, KCl 4.7, KH2PO4 1.2, MgSO4 1.2, CaCl2 1.25, NaHCO3 25, and glucose 11, pH 7.4). Within one min, the hearts were transferred to an isolated perfusion apparatus and perfused via the aorta with oxygen-saturated (95% O2+5% CO2) Kreb-Henseleit buffer kept at 37° C. with the use of a MasterFlex pump (model 7015-21, Cole-Palmer Instrument Co.) according to the modified Langendroff procedure (Yang et al., 1998; Neely and Rovetto, 1975). The heart was placed in a semi-closed circulating water-warmed (37° C.) air chamber, paced atrially with a Medtronic 5320 pacemaker at a rate of 300 bpm, and perfused at a constant flow (5.5-6.0 ml/per min). Coronary perfusion pressure (CPP) was measured via a catheter placed just proximal to the aorta and connected to a Gould Statham P23ID pressure transducer. A latex balloon filled with water and connected to a Gould Statham P23ID pressure transducer was inserted in the left ventricle through the left atrium to measure left ventricular end-diastolic pressure (LVEDP), left ventricular systolic pressure (LVSP), and developed left ventricular pressure (dLVP) (dLVP=LVSP−LVEDP). LVEDP during equilibration was set at 5 to 7 mmHg. All measurements were continuously recorded on a 4-channel record (Astro-Med).
Six hearts from saline-treated rats were continuously perfused with Kreb-Henseleit buffer for 80 min and served as sham control. Hearts from other rats, after 20 min of equilibration, were subjected to 30 min of ischemia followed by 30 min of reperfusion. After completion of the study, hearts were frozen in liquid-nitrogen for β1-AR analysis by binding assay, β1-AR protein analyses by Western blot, β1-AR mRNA analysis by reverse transcription-polymerase chain reaction (RT-PCR™), and measurement of MDA.
The protective effects of β1-AS-ODNs were tested in a rat model of myocardial ischemia-reperfusion. Five groups of SD rats were studied. Sham controls (n=6) were injected with saline and perfused continuously for 80 min without ischemia/reperfusion (I/R). In other groups, hearts were perfused for 20 min and subjected to global ischemia (30 min) followed by reperfusion (30 min). […] AS-ODN+I/R (n=7) or INV-ODN+I/R (n=7) were injected iv. with 1 mg/kg β1-AS-ODN or INV-ODN 4 days before the I/R study was performed.

Data set [1] has as its system SHRs. Briefly: Telemetric monitoring of conscious SHRs during dobutamine infusion. The class given is in vivo, rat (SHR). The method, then:
Two days after catherization of the jugular vein, control values were taken and 1 mg/kg β1-AS-ODN was injected. 48 hr later, rats were tested for the effect of β1-AS-ODN. The rats were allowed to recover until all the cardiovascular parameters returned to control values. […] For β1-stimulation, SHRs were infused with dobutamine (β1-selective agonist) through a jugular vein catheter at 5, 10, 20, and 40 μg·kg^−1·min.^−1. Each dose was given for 5 min. continuously and at 1-hr intervals until all the cardiovascular parameters returned to baseline values so as to avoid the effect of tachyphylaxis. BP and HR were sampled every 1 min. dP/dtmax was calculated from the slope of the rising pulse-pressure curve and determined every 1 min. The difference between values at each dose and baseline was denoted as Δ.
Two days after catheterization of jugular vein, control values were taken and 1 mg/kg β1-AS-ODN was injected. Forty-eight hr later, rats were tested for the effect of β1-AS-ODN. The rats were allowed to recover until all the cardiovascular parameters returned to control values. […] For β1-stimulation, SHR were infused with dobutamine (β1-selective agonist) through jugular vein catheter at 5, 10, 20, 40 μg/kg/min. Each dose was given for 5 min continuously and at 1-hr intervals until all cardiovascular parameters returned to baseline so as to avoid the effect of tachyphylaxis. BP and HR were sampled every min. dP/dtmax was calculated from the slope of the rising pulse pressure curve and determined every min. The difference between values at each dose and baseline was denoted as Δ.

The next data set deals with MDA (lipid peroxidation). Briefly: MDA levels in myocardium after ischemia-reperfusion. The data set is classed as in vivo, Sprague-Dawley rats. To be noted: pretreatment before ischemia-reperfusion; vs saline. The method, then:
Malondialdehyde (MDA) levels in myocardium were measured in duplicate by a modification of the method of Ohkawa et al., (1979). Briefly, the ventricular tissues were homogenized. The assay mixture consisted of 0.1 ml of the tissue homogenate, 0.4 ml of 0.9% NaCl, 0.5 ml of 3% sodium dodecylsulfate, 3 ml of TBA (thiobarbituric acid reagent, containing equal parts of 0.8% aqueous thiobarbituric acid and acetic acid) and was heated for 75 min at 95° C. Thereafter, 1 ml cold 0.9% NaCl was added to the mixture, which was cooled and extracted with 5 ml n-butanol. After centrifugation at 3,000 rpm for 15 min, the butanol phase was assayed spectrophotometrically at 532 nm. Tetramethoxypropane (in amounts of 0, 0.1, 0.2, 0.4, 0.8, 1.0 nmole) served as external standard. MDA levels in myocardium were expressed in μmol/g tissue.

Data set [2] deals with SHRs. The data set is classed as in vivo, rat (SHR). The method, then:
Each rat cage was placed on a receiver (RLA 1020, Data Sciences, St. Paul, Minn.) for measurement of cardiovascular parameters. Data were collected with a computer-based data acquisition program (Dataquest Lab-PRO3.0; Data Sciences). BP and HR were measured every 10 min. and averaged every 1 to 24 hrs. Before treatment, SHRs were monitored for a week to get a stable baseline.
Each rat cage was placed on a receiver (RLA1020, Data Sciences) for measurement of cardiovascular parameters. Data were collected with a computer-based data acquisition program (Dataquest LabPRO3.0; Data Sciences). BP and HR were measured every 10 min and averaged every 1 to 24 hr. Before treatment, SHR were monitored for a week to get a stable baseline.

Another data set concerns β1-AR protein. Briefly: Western blot of β1-AR protein in myocardium. The class given is in vivo, Sprague-Dawley rats. The conditions noted are these: Western analysis. On the procedure: Myocardial tissues were homogenized and lysed in boiling lysis buffer (1% SDS, 0.1% Triton X-100®, and 10 mmol/L Tris-HCl, pH 7.4) and centrifuged at 10,000 RPM for 30 minutes at 4° C. The lysate protein from myocardial tissues (20 μg/lane) was separated by 8% SDS-PAGE using a Bio-Rad Mini-Protean cell, transferred to nitrocellulose membrane (Amersham). After incubation in blocking solution (4% non-fat milk, Sigma), membranes were incubated with 1:1000 dilation primary antibody (polycolonal antibody to β1-AR, Santa Cruz Biotechnology) for overnight at 4° C. Membranes were washed and incubated with 1:2000 dilution second antibody (Amersham) for one hr. The membranes were detected with the ECL system, as described previously (Yang et al, 1998; Li et al., 1999).

The test system of a further data set is β1-AR mRNA. Briefly: RT-PCR of β1-AR mRNA in myocardium. To be noted: adjusted for GAPDH. The class given is in vivo, Sprague-Dawley rats. On the procedure: Total RNA was isolated from rat myocardium with the single step acid-guanidinum thiocyanate-phenol-chloroform method and quantified (Chomcznski and Sacchi, 1987). One μg of total RNA was reverse transcribed with oligo-dT (Promega) and M-MLV reverse transcriptase (Promega) at 37° C. for one hr. 1.5 μl of RT material was amplified with Taq DNA polymerase (Promega) using a primer pair specific to β1-AR:
PCR™ product was 432 base pairs. For PCR, 35 cycles were used at 95° C. for one minute, 60° C. for one minute, and 72° C. for one min. The RT-PCR™ amplified samples were visualized on 1.8% agarose gels using ethidium bromide. A primer pair of rat GAPDH was used as control:
For PCR™, 35 cycles were used at 95° C. for one min, 60° C. for one min, 72° C. for one min. PCR™ product was 504 base pairs. Relative intensity of bands of interest were analyzed by NSF-300G Scanner (Microtek) (Yang et al., 1998; Li et al., 1999).

In the case of `CC(C)NCC(O)COc1ccc(CC(N)=O)cc1` (stereo not shown) [atenolol, reference compound], in the data set on isolated rat heart, the “increase in CPP and LVEDP induced by ischemia-reperfusion” value is reported as “reduced the increase”; the “ischemia-reperfusion-induced change in LVSP and dLVP” value was “modestly attenuated”. Also, the “basal (resting) HR” value with SHRs [1] (1 mg/kg, control 365±8) was determined as 295±12 bpm. In the data set with SHRs [1] (after 1 mg/kg administration), the “time until inotropic and chronotropic effects of dobutamine returned to control levels” value is at most 24 h. In the data set with MDA (lipid peroxidation), the “increase in MDA levels in the myocardium” value is listed as “attenuated the increase”. In addition, in the data set on SHRs [2] (1 mg/kg i.v.), the “duration of hypotensive effect” value worked out at 10 h and the “onset of hypotensive effect after injection” value was determined as 20 min. The duration of action entry with SHRs [2] (comparison with β1-AS-ODN) is given as “less than 1 day”. Moreover, in the data set on SHRs [2] (rat, in vivo), the bradycardia entry is recorded as “appreciable bradycardia”. Moreover, the “ischemia-reperfusion-mediated increase in β1-AR protein expression” value in the data set with β1-AR protein is “no effect”. Moreover, the “increase of mRNA for β1-AR in myocardium” value in the data set with β1-AR mRNA was “not significantly affected”.
Turning to `CC(CCc1ccc(O)cc1)NCCc1ccc(O)c(O)c1` (stereo not shown) [Dobutamine, dobutamine], the “effect on SBP” value with SHRs [1] (higher infusion speed) was “reduced SBP; also recorded: reduced SPB”. The “elevation of SBP” value with SHRs [1] (low infusion speed) is 5 to 8 mm Hg and 5-8 mm Hg.

These data come from patent US6489307B1, “Antisense compositions targeted to β1-adrenoceptor-specific mRNA and methods of use” (University of Florida, priority 1998, dated 2002).
